In patent publication US9596849B2, “Composition containing sorbitan monocaprylate and alcohol” (Clariant International Ltd., priority 2009, dated 2017):

Columns and labels:
[1] = tested on: Aspergillus brasiliensis; assay: Minimum inhibitory concentration and synergistic effect (Kull) against Aspergillus brasiliensis; type: cell-based; conditions: for QA (minimum inhibitory concentration of the pure substance A): pure sorbitan monocaprylate
Text: (§1) Calculation of the synergistic effect according to the formula Qa/QA+Qb/QB=SE (synergistic effect, according to F. C. Kull et al., Applied Microbiology 1961, 9, 538), where Qa=minimum inhibitory concentration of the compound A in % in the mixture used, QA=minimum inhibitory concentration of the pure substance A, Qb=minimum inhibitory concentration of the compound B in % in the mixture used, and QB=minimum inhibitory concentration of the pure substance B.
(§2) Evaluation of the synergistic effect: where an SE>1 is obtained, there is an antagonistic effect; if SE=1, then the compounds are neutral in their behavior toward one another, and if SE<1, there is a synergistic effect.
(§3) Mixtures of sorbitan monocaprylate and phenoxyethanol or benzyl alcohol, in accordance with Examples 1) and 2), were investigated. The results with respect to synergism are set out in Tables A and B. “MIC blend” here is the minimum inhibitory concentration of the respective blend.

[2] = tested on: Staphylococcus aureus; assay: Minimum inhibitory concentration and synergistic effect (Kull) against Staphylococcus aureus; type: cell-based; conditions: for QA (minimum inhibitory concentration of the pure substance A): pure sorbitan monocaprylate
Text: as §1, §2, §3

[3] = Table A, sorbitan monocaprylate in 50:50 blend with phenoxyethanol
[4] = Table B, sorbitan monocaprylate in 50:50 blend with benzyl alcohol

sorbitan monocaprylate
QA (minimum inhibitory concentration of the pure substance A) ([1]; Table A): 0.016% | Qa (minimum inhibitory concentration of compound A in the mixture used) [1, 3]: 0.004% | QA (minimum inhibitory concentration of the pure substance A) ([1]; Table B): 0.016% | Qa (minimum inhibitory concentration of compound A in the mixture used) [1, 4]: 0.004% | QA (minimum inhibitory concentration of the pure substance A) ([2]; Table A): 0.25% | Qa (minimum inhibitory concentration of compound A in the mixture used) [2, 3]: 0.0315% | QA (minimum inhibitory concentration of the pure substance A) ([2]; Table B): 0.25% | Qa (minimum inhibitory concentration of compound A in the mixture used) [2, 4]: 0.016%
